Tests used:
[1] = biological target: T1, SHP-2 enzyme (Met1-Leu525) (Homo sapiens, UniProt Q06124); experiment: SHP2 inhibition enzymatic assay (DiFMUP substrate, IRS1 peptide activation); assay type: biochemical; conditions: SHP2 wt; activated by 500 nM IRS1 peptide; 75 μM DiFMUP substrate
T1 construct: synthetized by Origene, Met1-Leu525, cat #TP750155; purchased Origene TP750155
T1 sequence (Q06124 1-525): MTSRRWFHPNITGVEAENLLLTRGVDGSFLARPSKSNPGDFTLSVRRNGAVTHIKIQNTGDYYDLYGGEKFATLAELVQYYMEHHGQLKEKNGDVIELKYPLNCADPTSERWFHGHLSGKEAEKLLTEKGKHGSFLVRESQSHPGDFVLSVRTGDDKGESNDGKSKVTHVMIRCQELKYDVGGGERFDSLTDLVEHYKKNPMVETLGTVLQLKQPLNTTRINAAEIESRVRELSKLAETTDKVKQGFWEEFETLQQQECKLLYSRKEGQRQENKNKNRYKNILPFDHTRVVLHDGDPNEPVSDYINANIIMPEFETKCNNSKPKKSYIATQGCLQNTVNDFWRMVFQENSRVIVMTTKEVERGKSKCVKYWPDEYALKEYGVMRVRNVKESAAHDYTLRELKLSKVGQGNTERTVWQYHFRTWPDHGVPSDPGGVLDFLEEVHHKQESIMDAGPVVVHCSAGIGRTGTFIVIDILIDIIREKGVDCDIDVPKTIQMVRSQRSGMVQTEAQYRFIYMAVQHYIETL
Outline: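 SHP-2 (Met1-Leu525, 0.5 nM final) preincubated 30 min with compounds and IRS1 activating peptide in HEPES pH 7.2 buffer with NaCl, KCl, EDTA, tween-20, 5 mM DTT. DiFMUP then added for 30 min at room temperature and fluorescence read. IC50 from four-parameter logistic fit of % inhibition.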

[2] = tested on: ERK phosphorylation in KYSE-520 cells; experiment: Phospho-ERK cellular assay (Advanced phospho-ERK1/2 (Thr202/Tyr204) TR-FRET kit); assay type: cell-based; conditions: Homo sapiens, KYSE-520, 2 h, KYSE-520 cells, 2 h at 37° C., TR-FRET; read-out: pERK IC50
Experimental: Phospho-ERK Cellular Assay
ERK phosphorylation was detected using the “Advanced phospho-ERK1/2 (Thr202/Tyr204)” TR-FRET kit (Cisbio, Cat #64AERPEG/H), following the manufacturer reagents and instructions. […] After an overnight incubation, cells were treated with DMSO serial diluted compounds and incubated for 2 h at 37° C. After incubation, 2 μL/well of 4× Lysis Buffer (Cisbio 64KL1FDF), were added and incubated with cells for 30 min on gentle shaking. Finally, lysates were added with 2 μL/well of Eu cryptate (donor) and D2 (acceptor) conjugated antibodies (as provided by the Cisbio kit #64AERPEG/H) diluted 1:100 in Detection Buffer (as provided by the Cisbio kit #64AERPEG/H). Plates were then sealed and incubated at room temperature in the dark. After an overnight incubation, the TR-FRET signal was detected on a suitable reader (Envision, PerkinElmer). The lower the TR-FRET signal the higher the higher the SHP2 inhibition in cells. […] The percentage activity is fitted against the compound dilutions with a four-parameter logistic regression. The inflection point (i.e. the concentration at which half-maximal inhibition is achieved) is the IC50.

IC50 [1] [nM] | IC50 [2] [nM] | SMILES
< 500 | < 1000 | Nc1nccc(Sc2cnc3[nH]c(N4CCC5(CC4)Cc4ncccc4[C@H]5N)nc3n2)c1Cl [Example 145, (S)-1′-(5-((2-amino-3-chloropyridin-4-yl)thio)-1H-imidazo[4,5-b]pyrazin-2-yl)-5,7-dihydrospiro[cyclopenta[b]pyridine-6,4′-piperidin]-5-amine]
500 to 3000 | > 5000 | CNc1nccc(-c2cnc3[nH]c(N4CCC5(CC4)Cc4ccccc4[C@H]5N)nc3n2)c1Cl [Example 140, (S)-1′-(5-(3-chloro-2-(methylamino)pyridin-4-yl)-1H-imidazo[4,5-b]pyrazin-2-yl)-1,3-dihydrospiro[indene-2,4′-piperidin]-1-amine]
< 500 | 1000 to 5000 | CC1(N)CCN(c2nc3ncc(Sc4cccc(Cl)c4Cl)nc3[nH]2)CC1 [Example 22, 1-(5-((2,3-dichlorophenyl)thio)-1H-imidazo[4,5-b]pyrazin-2-yl)-4-methylpiperidin-4-amine]
< 500 | < 1000 | N[C@@H]1c2ccccc2CC12CCN(c1nc3ncc(Sc4ccnc(N5CCOCC5)c4Cl)nc3[nH]1)CC2 [Example 180, (S)-1′-(5-((3-chloro-2-morpholinopyridin-4-yl)thio)-1H-imidazo[4,5-b]pyrazin-2-yl)-1,3-dihydrospiro[indene-2,4′-piperidin]-1-amine]
< 500 | > 5000 | COc1nccc(Sc2cnc3[nH]c(N4CCC5(CC4)Cc4ccc(Br)cc4[C@H]5N)nc3n2)c1Cl [Example 228, (S)-6-bromo-1′-(5-((3-chloro-2-methoxypyridin-4-yl)thio)-1H-imidazo[4,5-b]pyrazin-2-yl)-1,3-dihydrospiro[indene-2,4′-piperidin]-1-amine]
< 500 | < 1000 | N#CC1CN(c2nccc(Sc3cnc4[nH]c(N5CCC6(CC5)Cc5ccccc5[C@H]6N)nc4n3)c2Cl)C1 [Example 191, (S)-1-(4-((2-(1-amino-1,3-dihydrospiro[indene-2,4′-piperidin]-1′-yl)-1H-imidazo[4,5-b]pyrazin-5-yl)thio)-3-chloropyridin-2-yl)azetidine-3-carbonitrile]
< 500 | 1000 to 5000 | CC1(N)CCN(c2nc3nc(Sc4ccnc5cccnc45)cnc3[nH]2)CC1 [Example 62, 1-(5-((1,5-naphthyridin-4-yl)thio)-1H-imidazo[4,5-b]pyrazin-2-yl)-4-methylpiperidin-4-amine]
< 500 | < 1000 | N#Cc1c(Sc2cnc3[nH]c(N4CCC5(CC4)Cc4ccccc4[C@H]5N)nc3n2)ccnc1N [Example 215, (S)-2-amino-4-((2-(1-amino-1,3-dihydrospiro[indene-2,4′-piperidin]-1′-yl)-1H-imidazo[4,5-b]pyrazin-5-yl)thio)nicotinonitrile]
< 500 | < 1000 | N[C@@H]1c2ccccc2CC12CCN(c1nc3nc(N4CCCc5ncccc54)cnc3[nH]1)CC2 [Example 249, (S)-1′-(5-(3,4-dihydro-1,5-naphthyridin-1(2H)-yl)-1H-imidazo[4,5-b]pyrazin-2-yl)-1,3-dihydrospiro[indene-2,4′-piperidin]-1-amine]
< 500 | 1000 to 5000 | CC1(N)CCN(c2nc3ncc(Sc4cccnc4C(F)(F)F)nc3[nH]2)CC1 [Example 1, 4-methyl-1-(6-((2-(trifluoromethyl)pyridin-3-yl)thio)-1H-imidazo[4,5-b]pyrazin-2-yl)piperidin-4-amine]
< 500 | < 1000 | N[C@@H]1c2cccnc2CC12CCN(c1nc3ncc(Sc4ccnc(Cl)c4Cl)nc3[nH]1)CC2 [Example 171, (S)-1′-(5-((2,3-dichloropyridin-4-yl)thio)-1H-imidazo[4,5-b]pyrazin-2-yl)-5,7-dihydrospiro[cyclopenta[b]pyridine-6,4′-piperidin]-5-amine]
< 500 | < 1000 | N#Cc1ncccc1Sc1cnc2[nH]c(N3CCC4(CC3)Cc3ccccc3[C@H]4N)nc2n1 [Example 217, (S)-3-((2-(1-amino-1,3-dihydrospiro[indene-2,4′-piperidin]-1′-yl)-1H-imidazo[4,5-b]pyrazin-5-yl)thio)picolinonitrile]
< 500 | > 5000 | Cn1c(N2CCC(C)(N)CC2)nc2nc(Sc3cccnc3C(F)(F)F)cnc21 [Example 52, 4-methyl-1-(1-methyl-5-((2-(trifluoromethyl)pyridin-3-yl)thio)-1H-imidazo[4,5-b]pyrazin-2-yl)piperidin-4-amine]
< 500 | 1000 to 5000 | Cn1cc2cccc(Sc3cnc4[nH]c(N5CCC6(CC5)Cc5ccccc5[C@H]6N)nc4n3)c2n1 [Example 202, (S)-1′-(5-((2-methyl-2H-indazol-7-yl)thio)-1H-imidazo[4,5-b]pyrazin-2-yl)-1,3-dihydrospiro[indene-2,4′-piperidin]-1-amine]
< 500 | < 1000 | N[C@@H]1c2cc(F)ccc2CC12CCN(c1nc3ncc(Sc4ccncc4F)nc3[nH]1)CC2 [Example 187, (S)-6-fluoro-1′-(6-((3-fluoropyridin-4-yl)thio)-1H-imidazo[4,5-b]pyrazin-2-yl)-1,3-dihydrospiro[indene-2,4′-piperidin]-1-amine]
< 500 | 1000 to 5000 | Nc1nccc(Sc2cnc3[nH]c(N4CCC5(CC4)Cc4ncc(F)cc4[C@H]5N)nc3n2)c1Cl [Example 230, (S)-1′-(5-((2-amino-3-chloropyridin-4-yl)thio)-1H-imidazo[4,5-b]pyrazin-2-yl)-3-fluoro-5,7-dihydrospiro[cyclopenta[b]pyridine-6,4′-piperidin]-5-amine]
< 500 | < 1000 | N[C@@H]1c2ccccc2CC12CCN(c1nc3nc(Sc4ccnc5cccc(F)c45)cnc3[nH]1)CC2 [Example 218, (S)-1′-(5-((5-fluoroquinolin-4-yl)thio)-1H-imidazo[4,5-b]pyrazin-2-yl)-1,3-dihydrospiro[indene-2,4′-piperidin]-1-amine]
< 500 | < 1000 | N[C@@H]1c2ccccc2CC12CCN(c1nc3nc(Sc4ccn[nH]c4=O)cnc3[nH]1)CC2 [Example 234, (S)-4-((2-(1-amino-1,3-dihydrospiro[indene-2,4′-piperidin]-1′-yl)-1H-imidazo[4,5-b]pyrazin-5-yl)thio)pyridazin-3(2H)-one]
< 500 | < 1000 | Nc1nccc(Sc2cnc3[nH]c(N4CCC5(CC4)Cc4ccccc4[C@H]5N)nc3n2)c1Cl [Example 132, (S)-1′-(5-((2-amino-3-chloropyridin-4-yl)thio)-1H-imidazo[4,5-b]pyrazin-2-yl)-1,3-dihydrospiro[indene-2,4′-piperidin]-1-amine]
< 500 | < 1000 | N[C@@H]1c2ccccc2CC12CCN(c1nc3nc(Sc4cccc5c4OC(F)(F)O5)cnc3[nH]1)CC2 [Example 136, (S)-1′-(5-((2,2-difluorobenzo[d][1,3]dioxol-4-yl)thio)-1H-imidazo[4,5-b]pyrazin-2-yl)-1,3-dihydrospiro[indene-2,4′-piperidin]-1-amine]
< 500 | > 5000 | Nc1cc(Sc2cnc3[nH]c(N4CCC5(CC4)Cc4ccccc4[C@H]5N)nc3n2)c(Cl)c(Cl)n1 [Example 266, (S)-1′-(5-((6-amino-2,3-dichloropyridin-4-yl)thio)-1H-imidazo[4,5-b]pyrazin-2-yl)-1,3-dihydrospiro[indene-2,4′-piperidin]-1-amine]
< 500 | 1000 to 5000 | CC1(N)CCN(c2nc3nc(Sc4ccnc5ccccc45)cnc3[nH]2)CC1 [Example 61, 4-methyl-1-(5-(quinolin-4-ylthio)-1H-imidazo[4,5-b]pyrazin-2-yl)piperidin-4-amine]
< 500 | < 1000 | N[C@@H]1c2ccccc2OC12CCN(c1nc3nc(Sc4cccnc4C(F)(F)F)cnc3[nH]1)CC2 [Example 143, (R)-1′-(5-((2-(trifluoromethyl)pyridin-3-yl)thio)-1H-imidazo[4,5-b]pyrazin-2-yl)-3H-spiro[benzofuran-2,4′-piperidin]-3-amine]

Source: US20220289753A1, “SHP2 INHIBITORS” (IRBM S.P.A., priority 2019, published 2022)
